Tested on: Sp1, VEGF, EGFR and PDGFA expression
Experiment: Expression of Sp1 and downstream molecules in H727 cells in vitro (Western/Northern blot)
Format: cell-based, human
Conditions: 100 μg/ml BVZ, 5 days
Description: FIG. 16. […] H727 cells were incubated in medium or medium containing 0.36 μM MIT for 24 hours. mRNA was extracted for Northern blot analysis of Sp1 expression (A1). H727 and BON-1 cells were incubated in medium or medium containing 0-0.36 μM MIT for 1 to 24 hours. […] B. Chromatin was prepared from the cells and ChIP assay was performed as described in Materials and Methods.
FIG. 18. Effects of treatment with BVZ and MIT on the growth of and gene expression in human carcinoid cells in vitro. A. H727 and BON-1 cells were incubated for 5 days in a medium alone or a medium containing 25 to 100 μg/ml BVZ. The viable cells were counted. B. H727 cells were incubated for 5 days in a medium alone or a medium containing 100 μg/ml BVZ. Total protein lysates were harvested from the cell cultures, and the level of Sp1 and VEGF protein expression was determined using Western blot analysis. Equal protein-sample loading was monitored by probing the same membrane filter with an anti-GAPDH. C. […] Cytotoxicity was assessed using the MTT assay.
Western blot analysis. […] Equal protein-sample loading was monitored by probing the same membrane filter with an antibody against glyceraldehyde-3-phosphate dehydrogenase (GAPDH) (21). The probe proteins were detected using the Amersham enhanced chemiluminescence system according to the manufacturer's instructions. […]

bevacizumab [BVZ]
expression of Sp1 and VEGF: did not affect the expression of Sp1 or its major downstream molecule, VEGF
